In patent US12157730B2, “Heteroaryl derivative, method for producing same, and pharmaceutical composition comprising same as effective component” (VORONOI INC., priority 2019, dated 2024):

What follows are compounds tested against T1, Ba/F3 cell EGFR Exon20 ins NPH (Homo sapiens, UniProt P00533, INS773NPH) (assay: Ba/F3 cell proliferation suppression, EGFR Exon20 ins NPH). Conditions: GI50 class; Ba/F3 cell line with NPH inserted at Exon20 of EGFR; 72 hours.
T1 construct: expressed in transfected cells; host or cells: Ba/F3
Assay type: cell-based
In short: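 Growth suppression determined as GI50 following 72 h exposure across 12 concentrations up to 50 um, with viability by luminescent ATP assay (CellTiter-Glo).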

Row | Ba/F3 (NPH) Activity | SMILES
1 | A (GI50 < 50 nM) | C=CC(=O)Nc1cc(Nc2cc(N3OCC[C@@H]3Cc3ccc(C(F)(F)F)cc3)ncn2)c(OC)cc1N1CCC(N2C[C@@H]3C[C@H]2CO3)CC1 [compound 1052, N-(2-(4-((1S,4S)-2-oxa-5-azabicyclo [2.2.1]heptane-5-yl)piperidine-1-yl)-4-methoxy-5-((6-((S)-3-(4-(trifluoromethyl)benzyl)isoxazolidine-2-yl)pyrimidine-4-yl)amino)phenyl) acrylamide]
2 | A (GI50 < 50 nM) | C=CC(=O)Nc1cc(Nc2cc(N3OCC[C@@H]3c3cccc(F)c3)ncn2)c(OC)cc1N1CCC(N2C[C@@H]3C[C@H]2CO3)CC1 [Example 244, N-(2-(4-((1S,4S)-2-oxa-5-azabicyclo[2.2.1]heptane-5-yl)piperidine-1-yl)-5-((6-((R)-3-(3-fluorophenyl)isoxazolidine-2-yl)pyrimidine-4-yl)amino)-4-methoxyphenyl) acrylamide]
3 | C (500 nM ≤ GI50 < 5000 nM) | C=CC(=O)Nc1cc(Nc2cc(N3OCC[C@H]3Cc3ccccc3)ncn2)c(OC)cc1N1CCN(C2CCCC2)CC1 [compound 977, N-(5-((6-((R)-3-benzylisoxazolidine-2-yl)pyrimidine-4-yl)amino)-2-(4-cyclopentylpiperazine-1-yl)-4-methoxyphenyl) acrylamide]
4 | A (GI50 < 50 nM) | C=CC(=O)Nc1cc(Nc2cc(N3OCC[C@@H]3c3cccc(Cl)c3C)ncn2)c(OC)cc1N1CCC(N2CCO[C@H](C)C2)CC1 [compound 530, N-(5-((6-((R)-3-(3-chloro-2-methylphenyl)isoxazolidine-2-yl)pyrimidine-4-yl)amino)-4-methoxy-2-(4-((R)-2-methylmorpholino)piperidine-1-yl)phenyl) acrylamide]
5 | A (GI50 < 50 nM) | C=CC(=O)Nc1cc(Nc2cc(N3OCC[C@@H]3c3cccc(Cl)c3Cl)ncn2)c(OC)cc1N(C)CCN(C)C [compound 516, N-(5-((6-((R)-3-(2,3-dichlorophenyl)isoxazolidine-2-yl)pyrimidine-4-yl)amino)-2-((2-(dimethylamino)ethyl)(methyl)amino)-4-methoxyphenyl) acrylamide]
6 | A (GI50 < 50 nM) | C=CC(=O)Nc1cc(Nc2cc(N3OCC[C@@H]3c3cc(F)ccc3F)ncn2)c(OC)cc1N1CCC(N2CCO[C@H](C)C2)CC1 [compound 822, N-(5-((6-((R)-3-(2,5-difluorophenyl)isoxazolidine-2-yl)pyrimidine-4-yl)amino)-4-methoxy-2-(4-((R)-2-methylmorpholino)piperidine-1-yl)phenyl) acrylamide]
7 | A (GI50 < 50 nM) | C=CC(=O)Nc1cc(Nc2cc(N3OCC[C@@H]3c3cc(F)ccc3F)ncn2)c(OC)cc1N1CCN(C2CC2)C[C@H]1C [compound 880, N-(2-((R)-4-cyclopropyl-2-methylpiperazine-1-yl)-5-((6-((R)-3-(2,5-difluorophenyl)isoxazolidine-2-yl)pyrimidine-4-yl)amino)-4-methoxyphenyl) acrylamide]
8 | A (GI50 < 50 nM) | C=CC(=O)Nc1cc(Nc2cc(N3OCC[C@@H]3c3cccc(F)c3F)ncn2)c(OC)cc1N1CCN(C)CC1 [compound 925, N-(5-((6-((R)-3-(2,3-difluorophenyl)isoxazolidine-2-yl)pyrimidine-4-yl)amino)-4-methoxy-2-(4-methylpiperazine-1-yl)phenyl)acrylamide]
9 | C (500 nM ≤ GI50 < 5000 nM) | C=CC(=O)Nc1cc(Nc2cc(N3OCC[C@@H]3c3ccc(Cl)c(Cl)c3F)ncn2)c(OC)cc1N1CC[C@H](N2CCOCC2)C1 [Example 295, N-(5-((6-((R)-3-(3,4-dichloro-2-fluorophenyl)isoxazolidine-2-yl)pyrimidine-4-yl)amino)-4-methoxy-2-((S)-3-morpholinopyrolidine-1-yl)phenyl)acrylamide]
